{"source": "patent US7432107B2", "about": "“Cardiac hormones for assessing cardiovascular risk” (Roche Diagnostics Operations, Inc., priority 2005, dated 2008)", "molecules": {"B1": {"name": "NT-proBNP: N-terminal pro peptide of 76 amino acids, cleaved from proBNP; inactive counterpart of BNP (protein, UniProt P16860 27-102, looked up)", "NT-proBNP": "HPLGSPGSASDLETSGLQEQRNHLQGKLSELQVEQTSLEPLQESPRPTGVWKSREVATEGIRGHRKMVLYTLRAPR", "modifications": "NT-proBNP"}}, "key": {"[1]": {"conditions": "48 hours at room temperature or at 4° Celsius; cited from earlier work"}, "[2]": {"conditions": "cited from earlier work"}, "[3]": {"conditions": "cited from earlier work", "remark": "listed apart in the source"}, "[4]": {"parameters": "species or system patients", "conditions": "human, in vivo, 24 weeks", "procedure": "NT-proBNP was measured in baseline serum samples from 433 patients entering a prospective study, designed primarily to define the therapeutic effect of a novel metallo-proteinase inhibitor in osteoarthritis (OA). Cardiovascular adverse events (CV-AEs) were monitored and related to the concomitant use of cox-2 inhibitors or NSAIDs or prostaglandin metabolism influencing steroids. In a retrospective analysis the question was evaluated whether CV AEs in patients receiving anti-inflammatory drugs could have been predicted from elevated NT-proBNP values. […]\nPermitted rescue anti-inflammatory drugs including cox-2 inhibitors and NSAIDs or steroids for this trial were aspirin, diclofenac sodium, diflunisal, etodolac, fenoprofen, ibuprofen, ketoprofen, naproxen, nabumetone, oxaprozin, piroxicam, sodium salicylate, choline magnesium salicylate, celecoxib, rofecoxib or tolmetin. […] Patients were not enquired actively for the occurrence of angina pectoris, signs or symptoms of congestive heart failure, or arterial hypertension, nor was the ECG routinely evaluated for the occurrence of new Q-waves or new bundle branch block. […]"}}}
{"molecule": "BNP: active natriuretic hormone of 32 amino acids, cleaved from proBNP", "values": [{"measurement": "concentration loss on storage", "setting": "[1]", "value": "at least 20%"}, {"measurement": "in-vivo half-life", "setting": "[2]; in vivo", "value": 0.333, "unit": "h"}]}
{"molecule": "CS(=O)(=O)c1ccc(C2=C(c3ccccc3)C(=O)OC2)cc1", "note": "[Rofecoxib]", "values": [{"measurement": "additional cardiovascular incidents (myocardial infarction, stroke)", "setting": "[3]; 25 mg compared with placebo, after 18 months of follow-up", "value": "16 per 1,000 treated patients"}, {"measurement": "blood pressure levels", "setting": "[3]; 25 mg versus placebo, early post-observation phase", "value": "higher blood pressure levels"}, {"measurement": "rise in the rate of serious thromboembolic incidents", "setting": "[3]; APPROVE study", "value": 3.9, "unit": "times"}]}
{"molecule": "CC(=O)Nc1ccc(O)cc1", "note": "[acetaminophen]", "values": [{"measurement": "Hazard Ratio of covariate (takes drug at baseline), time to CV adverse events", "setting": "[4]", "value": 0.653}]}
{"molecule": "B1", "values": [{"measurement": "in-vivo half-life, longer than that of BNP", "setting": "[2]; difference to BNP", "value": 2, "unit": "h"}]}
